Experimental data as given in patent US8197865B2, “Methods and compositions for modulating hair growth or regrowth” (Access Business Group International LLC, priority 2005, dated 2012).

Experiments:
[1] = system: DHT synthesis in DU-145 cells; test: Dihydrotestosterone (DHT) synthesis by human prostate cells (DU-145), DHT ELISA; type: cell-based; details: for Average % DHT Synthesis Observed: % control vs DHT in untreated control cells, testosterone 1 nM, 6 hours, test concentrations typically 0.1, 1, 10 μg/ml
[2] = system: VEGF secretion by human dermal papilla cells; test: VEGF secretion by human dermal papilla cells, ELISA; type: cell-based; details: for Average % VEGF Secretion: % control vs untreated control cells, overnight, typically 0.1, 1, 10 μg/ml
Description: (§1) The ability of each of the ingredients in the compositions of the present invention to stimulate or increase secretion of growth factors, such as VEGF and KGF was measured. One of ordinary skill in the art will appreciate that there are numerous methods for measuring the ability of a substance to stimulate secretion of a growth factor. One example of such a method is set forth below and described in Lachgar S., et al., 1998. “Minoxidil upregulates the expression of vascular endothelial growth factor in human hair dermal papilla cells.” Br J. Dermatol. 138:407-11, the entire contents of which are incorporated by reference herein.
(§2) For example, to measure the ability of a compound to stimulate secretion of a growth factor, 100 mg of each test sample in powder form was measured. A 50 mg/ml total extract of the sample was then prepared by sequential addition of DMSO:ethanol:water in a ratio of 5:3:2. One of ordinary skill in the art will understand that other amounts of sample may be used. For example, to prepare a 100 mg sample, 1 mL DMSO, 0.6 ml ethanol, and 0.4 ml water are mixed together.
(§3) This solution is extensively mixed by vortexing and incubating for 10 minutes in a sonic water bath. Each sample ingredient is diluted from the stock concentration of 50 mg/ml to a test concentration (i.e., typically, 0.1, 1, and 10 μg/ml) in tissue culture media.
(§4) The effect of each test sample ingredient may be measured using human dermal papilla cells, which may be purchased from Cell Applications (San Diego, Calif.). In particular, the cells are plated at 3.5×10^4/well in a standard 24 well tissue culture plate using a proprietary medium supplied by the company. Following plating, the cells are incubated overnight. The following day, the media in the wells is aspirated and replaced with fresh media containing the diluted sample ingredient. The cells are again incubated overnight with the samples.
(§5) Growth factors in the cell culture supernatants are assayed using commercially available ELISA kits according to the manufacture's specifications. For example, an ELISA assay may be run to detected either KGF, VEGF, or both. An ELISA kit for detecting KGF may be purchased from R&D Systems (Minneapolis, Minn.). An ELISA kit for detecting VEGF may be purchased from Biosource International (Camarillo, Calif.).
(§6) Data are reported as % control compared to the level of growth factor secreted from untreated control cells.

[3] = system: KGF secretion by human dermal papilla cells; test: KGF secretion by human dermal papilla cells, ELISA; type: cell-based; details: for Average % KGF Secretion: % control vs untreated control cells, overnight, typically 0.1, 1, 10 μg/ml
Description: as §1, §2, §3, §4, §5, §6

proteasome = test: Proteasome inhibition, fluorescent substrate kit; type: biochemical; details: % control vs proteasome activity without inhibitor or test sample; test concentration given as 50 mg/ml
Description: The ability of each of the ingredients in the compositions of the present invention to inhibit proteasome activity was measured. One of ordinary skill in the art will appreciate that there are numerous methods for measuring the ability of a substance to inhibit proteasome activity. One example of such a method is set forth below and described in U.S. Pat. No. 6,410,512, the entire contents of which are incorporated by reference herein.
as §2, with “inhibit proteasome activity,” for “stimulate secretion of a growth factor,”, “neat” for “powder”
This solution is extensively mixed by vortexing and incubating for 10 minutes in a sonic water bath. Each sample ingredient is diluted from the stock concentration to a test concentration of 50 mg/ml in proteasome reaction buffer media.
Inhibition of proteasome activity may be assayed using a proteasome kit that is commercially available, for example from Boston Biochem (Boston, Mass.). Test sample ingredients are first added to the proteasome provided with the kit. The fluorescent proteasome substrate is then added and cleavage of the substrate by the proteasome is monitored using a fluorescence plate reader. Data are expressed as % control compared to proteasome activity without any inhibitor or test sample added.
as §6

Row | Compound | Average % DHT Synthesis Observed [1] | Average % VEGF Secretion [2] | Average % KGF Secretion [3] | Effect on VEGF secretion, in words (summary of Table 3) [2] | Average % Proteasome Activity (proteasome) | Effect on KGF secretion, in words (summary of Table 3) [3] | Effect on DHT synthesis, in words (summary of Table 2) [1]
1 | O=c1cc(-c2ccc(O)c(-c3c(O)cc(O)c4c(=O)cc(-c5ccc(O)cc5)oc34)c2)oc2cc(O)cc(O)c12 [Amentoflavone] | 163.9% | 186.2% | 209.5% | – | – | – | –
2 | CC1=C(/C=C/C(C)=C/C=C/C(C)=C/C=C/C=C(C)/C=C/C=C(C)/C=C/C2=C(C)C(=O)[C@@H](O)CC2(C)C)C(C)(C)C[C@H](O)C1=O [Astaxanthin] | 103.9% | 249.4% | 327.1% | most potent stimulators of VEGF | 114.0% | – | –
3 | C[C@@H]1O[C@@H](O[C@H]2C(=O)c3c(O)cc(O)cc3O[C@@H]2c2ccc(O)c(O)c2)[C@H](O)[C@H](O)[C@H]1O [Astilbin] | 78.0% | 122.9% | 85.4% | – | 47.7% | most potent inhibitors of KGF secretion | –
4 | O=C(CCCCc1ccc2c(c1)OCO2)N1CCCCC1 [Cosmoperine ™, tetrahydropiperine] | 130.1% | 172.5% | 75.1% | – | 67.6% | most potent inhibitors of KGF secretion | –
5 | O=c1cc(-c2ccc(O)c(O)c2)oc2cc(O)cc(O)c12 [Luteolin] | 96.2% | 123.2% | 147.8% | – | 76.4% | – | –
6 | disodium lauraminodipropionate tocopheryl phosphate [Vital ET ™] | 72.1% | 107.9% | 103.0% | – | 68.3% | – | most potent inhibitors of DHT synthesis
